Converted amounts (≈) assume the structure as drawn.
Key:
Format in all cases: functional
Salmonella typhi [1] = test: Antibacterial activity against Salmonella enterica subsp. enterica serovar Typhi MTCC 733 assessed as growth inhibition at 3.12 to 50 ug/mL after 24 hr by agar disk diffusion method
Klebsiella pneumoniae [2] = test: Antibacterial activity against Klebsiella pneumoniae MTCC 109 assessed as growth inhibition at 3.12 to 50 ug/mL after 24 hr by agar disk diffusion method
Klebsiella pneumoniae [3] = test: Antibacterial activity against Klebsiella pneumoniae MTCC 109 assessed as growth inhibition after 24 hr by agar streak dilution method; conditions: MTCC 109, 24 h
Salmonella typhi [4] = test: Antibacterial activity against Salmonella enterica subsp. enterica serovar Typhi MTCC 733 assessed as growth inhibition after 24 hr by agar streak dilution method; conditions: MTCC 733, 24 h
Pseudomonas aeruginosa [5] = test: Antibacterial activity against Pseudomonas aeruginosa MTCC 741 assessed as growth inhibition after 24 hr by agar streak dilution method; conditions: MTCC 741, 24 h
Escherichia coli [6] = test: Antibacterial activity against Escherichia coli MTCC 739 assessed as growth inhibition after 24 hr by agar streak dilution method; conditions: MTCC 739, 24 h
Bacillus cereus [7] = test: Antibacterial activity against Bacillus cereus MTCC 430 assessed as growth inhibition after 24 hr by agar streak dilution method; conditions: MTCC 430, 24 h
Staphylococcus aureus [8] = test: Antibacterial activity against Staphylococcus aureus MTCC 96 assessed as growth inhibition after 24 hr by agar streak dilution method; conditions: MTCC 96, 24 h
[9] = system: Mycobacterium tuberculosis; test: Antimycobacterial activity against Mycobacterium tuberculosis H37Rv assessed as growth inhibition at MIC after 12 to 28 days by Lowenstein and Jensen agar dilution method
[10] = system: Mycobacterium tuberculosis; test: Antimycobacterial activity against Mycobacterium tuberculosis H37Rv assessed as growth inhibition after 12 to 28 days by Lowenstein and Jensen agar dilution method
[11] = system: Mycobacterium tuberculosis; test: Antimycobacterial activity against Mycobacterium tuberculosis H37Rv assessed as growth inhibition measured within 10 days by BACTEC MGIT method; conditions: 240 h
Candida albicans [12] = test: Antifungal activity against Candida albicans MTCC 183 assessed as growth inhibition at 3.12 to 50 ug/mL after 24 hr by agar disk diffusion method
Aspergillus clavatus [13] = test: Antifungal activity against Aspergillus clavatus MTCC 1323 assessed as growth inhibition at 3.12 to 50 ug/mL after 24 hr by agar disk diffusion method
Aspergillus fumigatus [14] = test: Antifungal activity against Aspergillus fumigatus MTCC 343 assessed as growth inhibition at 3.12 to 50 ug/mL after 24 hr by agar disk diffusion method
Aspergillus niger [15] = test: Antifungal activity against Aspergillus niger MTCC 282 assessed as growth inhibition at 3.12 to 50 ug/mL after 24 hr by agar disk diffusion method
Candida albicans [16] = test: Antifungal activity against Candida albicans MTCC 183 assessed as growth inhibition after 48 hr by agar streak dilution method; conditions: MTCC 183, 48 h
Aspergillus clavatus [17] = test: Antifungal activity against Aspergillus clavatus MTCC 1323 assessed as growth inhibition after 48 hr by agar streak dilution method; conditions: MTCC 1323, 48 h
Aspergillus fumigatus [18] = test: Antifungal activity against Aspergillus fumigatus MTCC 343 assessed as growth inhibition after 48 hr by agar streak dilution method; conditions: MTCC 343, 48 h
Aspergillus niger [19] = test: Antifungal activity against Aspergillus niger MTCC 282 assessed as growth inhibition after 48 hr by agar streak dilution method; conditions: MTCC 282, 48 h
Shigella flexneri [20] = test: Antibacterial activity against Shigella flexneri MTCC 1457 assessed as growth inhibition at 3.12 to 50 ug/mL after 24 hr by agar disk diffusion method
Proteus vulgaris [21] = test: Antibacterial activity against Proteus vulgaris MTCC 1771 assessed as growth inhibition at 3.12 to 50 ug/mL after 24 hr by agar disk diffusion method
Pseudomonas aeruginosa [22] = test: Antibacterial activity against Pseudomonas aeruginosa MTCC 741 assessed as growth inhibition at 3.12 to 50 ug/mL after 24 hr by agar disk diffusion method
Escherichia coli [23] = test: Antibacterial activity against Escherichia coli MTCC 739 assessed as growth inhibition at 3.12 to 50 ug/mL after 24 hr by agar disk diffusion method
Bacillus cereus [24] = test: Antibacterial activity against Bacillus cereus MTCC 430 assessed as growth inhibition at 3.12 to 50 ug/mL after 24 hr by agar disk diffusion method
Staphylococcus aureus [25] = test: Antibacterial activity against Staphylococcus aureus MTCC 96 assessed as growth inhibition at 3.12 to 50 ug/mL after 24 hr by agar disk diffusion method
Shigella flexneri [26] = test: Antibacterial activity against Shigella flexneri MTCC 1457 assessed as growth inhibition after 24 hr by agar streak dilution method; conditions: MTCC 1457, 24 h
Proteus vulgaris [27] = test: Antibacterial activity against Proteus vulgaris MTCC 1771 assessed as growth inhibition after 24 hr by agar streak dilution method; conditions: MTCC 1771, 24 h

Row | Compound | inhibition zone (IZ) (Salmonella typhi [1]) [mm] | inhibition zone (IZ) (Klebsiella pneumoniae [2]) [mm] | MIC (Klebsiella pneumoniae [3]) [µg/mL] | MIC (Salmonella typhi [4]) [µg/mL] | MIC (Pseudomonas aeruginosa [5]) [µg/mL] | MIC (Escherichia coli [6]) [µg/mL] | MIC (Bacillus cereus [7]) [µg/mL] | MIC (Staphylococcus aureus [8]) [µg/mL] | growth inhibition (GI) [9] [%] | MIC [10] [µg/mL] | MIC [11] [µg/mL] | inhibition zone (IZ) (Candida albicans [12]) [mm] | inhibition zone (IZ) (Aspergillus clavatus [13]) [mm] | inhibition zone (IZ) (Aspergillus fumigatus [14]) [mm] | inhibition zone (IZ) (Aspergillus niger [15]) [mm] | MIC (Candida albicans [16]) [µg/mL] | MIC (Aspergillus clavatus [17]) [µg/mL] | MIC (Aspergillus fumigatus [18]) [µg/mL] | MIC (Aspergillus niger [19]) [µg/mL] | inhibition zone (IZ) (Shigella flexneri [20]) [mm] | other results
1 | CCOc1ccc(NC(=O)CNc2ccc(-c3nc(N4CC(C)CC(C)C4)nc(N4CC(C)CC(C)C4)n3)cc2)cc1 (configuration not stated) | 21 | <10 | 50 (≈ 87.4 µM) | 25 (≈ 43.7 µM) | 50 (≈ 87.4 µM) | 12.5 (≈ 21.9 µM) | 50 (≈ 87.4 µM) | 25 (≈ 43.7 µM) | 98 | 25 (≈ 43.7 µM) | > 6.25 | 24 | 14 | <10 | 19 | 25 (≈ 43.7 µM) | 50 (≈ 87.4 µM) | > 50 | 25 (≈ 43.7 µM) | 22 | inhibition zone (IZ) (Proteus vulgaris [21]): 25 mm; inhibition zone (IZ) (Pseudomonas aeruginosa [22]): 16 mm; inhibition zone (IZ) (Escherichia coli [23]): 24 mm; inhibition zone (IZ) (Bacillus cereus [24]): 20 mm; inhibition zone (IZ) (Staphylococcus aureus [25]): 19 mm; MIC (Shigella flexneri [26]): 25 µg/mL (≈ 43.7 µM); MIC (Proteus vulgaris [27]): 12.5 µg/mL (≈ 21.9 µM)
2 | CC1CC(C)CN(c2nc(-c3ccc(NCC(=O)Nc4ccc(F)cc4)cc3)nc(N3CC(C)CC(C)C3)n2)C1 (configuration not stated) | 21 | 21 | 50 (≈ 91.6 µM) | 25 (≈ 45.8 µM) | 12.5 (≈ 22.9 µM) | 25 (≈ 45.8 µM) | 25 (≈ 45.8 µM) | 12.5 (≈ 22.9 µM) | 97 | 25 (≈ 45.8 µM) | > 6.25 | 15 | 13 | 22 | 18 | 50 (≈ 91.6 µM) | 50 (≈ 91.6 µM) | 50 (≈ 91.6 µM) | 50 (≈ 91.6 µM) | 25 | inhibition zone (IZ) (Proteus vulgaris [21]): 16 mm; inhibition zone (IZ) (Pseudomonas aeruginosa [22]): 27 mm; inhibition zone (IZ) (Escherichia coli [23]): 20 mm; inhibition zone (IZ) (Bacillus cereus [24]): 22 mm; inhibition zone (IZ) (Staphylococcus aureus [25]): 20 mm; MIC (Shigella flexneri [26]): 12.5 µg/mL (≈ 22.9 µM); MIC (Proteus vulgaris [27]): 50 µg/mL (≈ 91.6 µM)
3 | CC1CC(C)CN(c2nc(-c3ccc(NCC(=O)Nc4ccc(I)cc4)cc3)nc(N3CC(C)CC(C)C3)n2)C1 (configuration not stated) | 17 | 23 | 50 (≈ 76.5 µM) | 50 (≈ 76.5 µM) | 25 (≈ 38.2 µM) | 50 (≈ 76.5 µM) | 50 (≈ 76.5 µM) | 50 (≈ 76.5 µM) | 95 | 250 (≈ 382 µM) | > 6.25 | <10 | <10 | 16 | <10 | > 50 | > 50 | 50 (≈ 76.5 µM) | 50 (≈ 76.5 µM) | 20 | inhibition zone (IZ) (Proteus vulgaris [21]): 23 mm; inhibition zone (IZ) (Pseudomonas aeruginosa [22]): 24 mm; inhibition zone (IZ) (Escherichia coli [23]): <10 mm; inhibition zone (IZ) (Bacillus cereus [24]): 16 mm; inhibition zone (IZ) (Staphylococcus aureus [25]): 17 mm; MIC (Shigella flexneri [26]): 50 µg/mL (≈ 76.5 µM); MIC (Proteus vulgaris [27]): 25 µg/mL (≈ 38.2 µM)
4 | CC1CC(C)CN(c2nc(-c3ccc(NCC(=O)Nc4ccc([N+](=O)[O-])cc4)cc3)nc(N3CC(C)CC(C)C3)n2)C1 (configuration not stated) | 15 | 12 | 50 (≈ 87.3 µM) | 50 (≈ 87.3 µM) | 50 (≈ 87.3 µM) | 50 (≈ 87.3 µM) | 50 (≈ 87.3 µM) | 12.5 (≈ 21.8 µM) | 94 | 100 (≈ 175 µM) | > 6.25 | 13 | 24 | 18 | 18 | 50 (≈ 87.3 µM) | 50 (≈ 87.3 µM) | 50 (≈ 87.3 µM) | 50 (≈ 87.3 µM) | 17 | inhibition zone (IZ) (Proteus vulgaris [21]): 13 mm; inhibition zone (IZ) (Pseudomonas aeruginosa [22]): 20 mm; inhibition zone (IZ) (Escherichia coli [23]): 13 mm; inhibition zone (IZ) (Bacillus cereus [24]): 16 mm; inhibition zone (IZ) (Staphylococcus aureus [25]): 20 mm; MIC (Shigella flexneri [26]): 50 µg/mL (≈ 87.3 µM); MIC (Proteus vulgaris [27]): 50 µg/mL (≈ 87.3 µM)
5 | CC1CC(C)CN(c2nc(-c3ccc(NCC(=O)Nc4ccc(C#N)cc4)cc3)nc(N3CC(C)CC(C)C3)n2)C1 (configuration not stated) | 20 | 28 | 12.5 (≈ 22.6 µM) | 50 (≈ 90.5 µM) | 50 (≈ 90.5 µM) | 25 (≈ 45.2 µM) | 50 (≈ 90.5 µM) | 12.5 (≈ 22.6 µM) | 96 | 62.5 (≈ 113 µM) | > 6.25 | <10 | <10 | 11 | <10 | > 50 | > 50 | 50 (≈ 90.5 µM) | 50 (≈ 90.5 µM) | 15 | inhibition zone (IZ) (Proteus vulgaris [21]): 19 mm; inhibition zone (IZ) (Pseudomonas aeruginosa [22]): 21 mm; inhibition zone (IZ) (Escherichia coli [23]): 20 mm; inhibition zone (IZ) (Bacillus cereus [24]): 19 mm; inhibition zone (IZ) (Staphylococcus aureus [25]): 19 mm; MIC (Shigella flexneri [26]): 50 µg/mL (≈ 90.5 µM); MIC (Proteus vulgaris [27]): 50 µg/mL (≈ 90.5 µM)
6 | Cc1ccc(NC(=O)CNc2ccc(-c3nc(N4CC(C)CC(C)C4)nc(N4CC(C)CC(C)C4)n3)cc2)cc1 (configuration not stated) | 18 | <10 | 50 (≈ 92.3 µM) | 50 (≈ 92.3 µM) | 50 (≈ 92.3 µM) | 50 (≈ 92.3 µM) | 50 (≈ 92.3 µM) | 50 (≈ 92.3 µM) | 95 | 250 (≈ 461 µM) | > 6.25 | 11 | <10 | <10 | <10 | 50 (≈ 92.3 µM) | > 50 | > 50 | 50 (≈ 92.3 µM) | 11 | inhibition zone (IZ) (Proteus vulgaris [21]): 16 mm; inhibition zone (IZ) (Pseudomonas aeruginosa [22]): 17 mm; inhibition zone (IZ) (Escherichia coli [23]): 13 mm; inhibition zone (IZ) (Bacillus cereus [24]): 14 mm; inhibition zone (IZ) (Staphylococcus aureus [25]): <10 mm; MIC (Shigella flexneri [26]): 50 µg/mL (≈ 92.3 µM); MIC (Proteus vulgaris [27]): 50 µg/mL (≈ 92.3 µM)

Source: ChEMBL document CHEMBL3046161, “Synthesis of potential antitubercular and antimicrobial s-triazine-based scaffolds via Suzuki cross-coupling reaction” (2013)
